Test results as given in article PMC6954722 (Stem Cells Translational Medicine, 2019).

Molecular target: Smoothened (Mus musculus, UniProt P56726)
Experiment: displacement of BODIPY-cyclopamine
Assay type: cell-based

Sequence of Smoothened (P56726 33-793): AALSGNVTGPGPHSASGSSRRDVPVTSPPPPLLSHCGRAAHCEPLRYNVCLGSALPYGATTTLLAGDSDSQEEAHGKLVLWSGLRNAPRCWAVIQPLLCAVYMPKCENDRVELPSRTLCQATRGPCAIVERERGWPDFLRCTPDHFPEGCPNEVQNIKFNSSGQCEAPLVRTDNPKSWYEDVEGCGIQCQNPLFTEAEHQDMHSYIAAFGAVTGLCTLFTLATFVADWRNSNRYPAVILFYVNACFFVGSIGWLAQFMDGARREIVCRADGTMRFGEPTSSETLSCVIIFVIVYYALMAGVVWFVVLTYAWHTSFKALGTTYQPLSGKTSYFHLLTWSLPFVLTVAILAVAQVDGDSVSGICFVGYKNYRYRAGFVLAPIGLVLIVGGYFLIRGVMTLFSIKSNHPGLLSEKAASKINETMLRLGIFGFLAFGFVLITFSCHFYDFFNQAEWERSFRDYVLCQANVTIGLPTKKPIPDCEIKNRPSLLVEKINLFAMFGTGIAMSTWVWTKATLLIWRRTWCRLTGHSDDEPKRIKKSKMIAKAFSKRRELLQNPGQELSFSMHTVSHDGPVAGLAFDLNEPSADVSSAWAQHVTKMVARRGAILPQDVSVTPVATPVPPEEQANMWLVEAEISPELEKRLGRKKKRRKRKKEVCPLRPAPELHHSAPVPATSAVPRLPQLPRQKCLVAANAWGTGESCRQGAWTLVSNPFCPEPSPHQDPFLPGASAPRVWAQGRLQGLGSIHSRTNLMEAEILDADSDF

O=[N+]([O-])c1ccc(S(=O)(=O)N2CCN(c3ccccc3)CC2)cc1 [compound #5, 1‐[(4‐nitrophenyl)sulfonyl]‐4‐phenylpiperazine]
IC50: 88 ± 3.7 µM
